{
  "source": "ChEMBL document CHEMBL1157406",
  "about": "“Cytotoxic metabolites from the fungal endophyte Alternaria sp. and their subsequent detection in its host plant Polygonum senegalense” (J Nat Prod, 2008)",
  "data": [
    {"test_system": "L5178Y", "experiment": "Cytotoxicity against mouse L5178Y cells at 10 ug/ml by MTT assay", "type": "functional", "units": {"Activity": "%"}, "values": [
      {"smiles": "COc1cc(O)c2c(=O)oc3cc(OS(=O)(=O)O)cc(C)c3c2c1", "Activity": 89},
      {"smiles": "Cc1cc(=O)c2c(C)cc(O)cc2o1", "Activity": 95},
      {"smiles": "CC[C@H](C)[C@@H]1NC(=O)C(C(C)=O)=C1O", "note": "[TENUAZONIC ACID]", "Activity": 57.9}
    ]}
  ]
}
